# Experimental data from publication PMC7767178 (International Journal of Molecular Sciences, 2020).
# Several values for one entry are separate records, joined by “and”; a condition that tells them apart may be missing. Equal values may be shown once. Read-outs that look alike come from different tables or passages of the source. Positions of bridges follow the written chain, without caps; N, C: chain ends. Residues, ends and D or L forms follow the SMILES beside them.
# What was measured:
# A. veronii X-1-06909 = assay: microbe, parasite or virus in culture; assay type: cell-based
# Description: (§1) All experiments were repeated three times.
# [1] = tested on: Candida albicans CMCC98001; assay: microbe, parasite or virus in culture; assay type: cell-based
# Description: as §1
# E. coli CVCC1515 = assay: microbe, parasite or virus in culture; assay type: cell-based
# Description: as §1
# E. coli CVCC25922 = assay: microbe, parasite or virus in culture; assay type: cell-based
# Description: as §1
# Escherichia coli CVCC195 = assay: microbe, parasite or virus in culture; assay type: cell-based
# Description: as §1
# S. enteritidis CVCC3377 = assay: microbe, parasite or virus in culture; assay type: cell-based
# Description: as §1
# S. pullorum CVCC1789 = assay: microbe, parasite or virus in culture; assay type: cell-based
# Description: as §1
# S. pullorum CVCC1809 = assay: microbe, parasite or virus in culture; assay type: cell-based
# Description: as §1
# S. pullorum CVCC533 = assay: microbe, parasite or virus in culture; assay type: cell-based
# Description: as §1
# [2] = tested on: Staphylococcus aureus ATCC43300; assay: microbe, parasite or virus in culture; assay type: cell-based; conditions: Staphylococcus aureus ATCC43300, broth dilution, 37 °C, 16–18 h, three experiments
# Description: as §1
# E. coli CVCCO157 = assay: MIC, microtiter broth dilution; assay type: cell-based; conditions: 37 °C, 16–18 h, three experiments
# Description: as §1
# A. veronii ACCC61732 [3] = assay: Time-killing curves; assay type: cell-based; conditions: 2× MIC; 1 × 10^5 CFU/mL, colony counting, 0–24 h
# Method: Time-killing curves were performed as previously described. […] The sample of 100 μL was taken from each flask at 0, 0.5, 1, 2, 4, 6, 8, 10, 20, and 24 h, respectively, and serially diluted for colony counting. PBS and CIP were used as the negative and positive control, respectively.
# A. veronii ACCC61732 [4] = assay: Post-antibiotic effect (PAE); assay type: cell-based; conditions: for PAE: 2 h exposure, 1000-fold dilution, 37 °C, triplicate
# Method: The samples were taken from flasks for counting each hour until bacterial cultures became turbid. The untreated bacteria severed as controls. The PAE was calculated using the following equation: PAE = T − C, where T is the time (h) required for the CFU in the test culture to increase by 10-fold from the count immediately after the drug removal and C is the corresponding time (h) for the control. The experiment was performed in triplicate.
# A. veronii ACCC61732 [5] = assay: Resistance development, 30 serial passages; assay type: cell-based; conditions: A. veronii ACCC61732, 30 passages (30 days)
# Method: The development of bacterial resistance of peptides was performed by the MIC assays. […] GEN, CIP, and PMB were used as controls. […] The MIC values were measured as described above. The serial passaging was repeated for 30 days.
# [6] = tested on: A. veronii ACCC61732 in biofilm; assay type: cell-based; conditions: 2 h
# Method: The mid-log phase A. veronii ACCC61732 cells (1 × 10^8 CFU/mL) were inoculated into in the 96-well plates and cultured for 24 h at 37 °C. The plates were washed twice with PBS. […] PBS was used as the negative control. The plates were treated with ultrasound for 5 min and the viable bacteria were counted on the TSA plates.
# [7] = tested on: A. veronii ACCC61732 biofilms; assay: Mouse model of catheter-associated biofilm infection, bacteria in catheter; assay type: in vivo, ICR mice; conditions: 5 μmol/kg peptide or CIP 24 h after catheter implantation, catheters collected after seven days, six mice per group
# Method: Briefly, the catheter was cut into 1 cm segments; each piece was sterilized with 70% ethanol and then dried by air. Bacterial biofilms were developed on the catheter by placing individual segments into tubes containing 1.0 mL of a cell suspension (1 × 10^8 CFU/mL) in TSB. After incubation for 24 h at 37 °C, colonized catheters were recovered aseptically and rinsed with PBS to remove unbound bacteria. ICR female mice (20 ± 5 g) were anesthetized with isoflurane; the flanks were shaved and the skin was cleansed with alcohol. […] The incision was then covered with intact skin and closed with surgical suture line and the skin was disinfected. […] The untreated mice were used as the negative control and the mice with sterile catheter were used as the blank control. The mice were anesthetized and sacrificed after seven days. The catheters in the back of the mice were collected and thoroughly shaken in sterile PBS.
# IL-10 = assay: Serum cytokine, ELISA, peritonitis model; assay type: in vivo; conditions: 24 h after treatment, range over mice
# Method: Sera and organs (livers, kidneys, spleens, and lungs) were collected from the mice at 24 h post-treatment. The organs were homogenized in sterile PBS to evaluate bacterial translocation by colony counting. The levels of cytokines (TNF-α, IL-1β, IL-6, and IL-10) in sera were detected using the ELISA kits.
# [8] = tested on: A. veronii ACCC61732 genomic DNA; assay: CD spectra of genomic DNA with peptides; assay type: binding; conditions: mass ratios 2.5 and 10.0, 10 min, room temperature
# Method: CD spectra were performed to examine the secondary structure of genomic DNA from A. veronii ACCC61732 after incubation with peptides. […] The mixtures were loaded into a cuvette of 1.0-mm path length and scanned from 190 to 330 nm at 25 °C using a Pistar π-180 CD spectrometer (Applied Photophysics Ltd., Surry, UK).
# Salmonella = conditions: range over the strains of Table 2
# trypsin = conditions: pH 8
# [9] = Escherichia coli CVCC195, broth dilution, 37 °C, 16–18 h, three experiments, read-out: MIC
structure (smiles),measurement,setting,value
"O=C(O)c1cn(C2CC2)c2cc(N3CCNCC3)c(F)cc2c1=O [CIP, ciprofloxacin, reference compound]",MIC,"A. veronii X-1-06909; Aeromonas veronii, X106909, A. veronii X-1-06909, broth dilution, 37 °C, 16–18 h, three experiments, read-out: MIC",0.25 µg/mL and 0.75 µM
same,MIC,"[1]; Candida albicans CMCC98001, broth dilution, 37 °C, 16–18 h, three experiments, read-out: MIC",> 386 µM
same,MIC,"[1]; Candida albicans, CMCC98001",> 128 µg/mL
same,MIC,"E. coli CVCC1515; Escherichia coli, CVCC1515",< 0.0625 µg/mL
same,MIC,"E. coli CVCC1515; Escherichia coli, E. coli CVCC1515, broth dilution, 37 °C, 16–18 h, three experiments, read-out: MIC",< 0.19 µM
same,MIC,"E. coli CVCC25922; Escherichia coli, CVCC25922",< 0.0625 µg/mL
same,MIC,"E. coli CVCC25922; Escherichia coli, E. coli CVCC25922, broth dilution, 37 °C, 16–18 h, three experiments, read-out: MIC",< 0.19 µM
same,MIC,Escherichia coli CVCC195; [9],< 0.19 µM
same,MIC,"Escherichia coli CVCC195; Escherichia coli, CVCC195",< 0.0625 µg/mL
same,MIC,"S. enteritidis CVCC3377; Salmonella enterica, ENTERITIDIS",< 0.0625 µg/mL
same,MIC,"S. enteritidis CVCC3377; Salmonella enterica, S. enteritidis CVCC3377, broth dilution, 37 °C, 16–18 h, three experiments, read-out: MIC",< 0.19 µM
same,MIC,"S. pullorum CVCC1789; Salmonella enterica, PULLORUM",< 0.0625 µg/mL
same,MIC,"S. pullorum CVCC1789; Salmonella enterica, S. pullorum CVCC1789, broth dilution, 37 °C, 16–18 h, three experiments, read-out: MIC",< 0.19 µM
same,MIC,"S. pullorum CVCC1809; Salmonella enterica, PULLORUM",< 0.0625 µg/mL
same,MIC,"S. pullorum CVCC1809; Salmonella enterica, S. pullorum CVCC1809, broth dilution, 37 °C, 16–18 h, three experiments, read-out: MIC",< 0.19 µM
same,MIC,"S. pullorum CVCC533; Salmonella enterica, PULLORUM",< 0.0625 µg/mL
same,MIC,"S. pullorum CVCC533; Salmonella enterica, S. pullorum CVCC533, broth dilution, 37 °C, 16–18 h, three experiments, read-out: MIC",< 0.19 µM
same,MIC,[2]; read-out: MIC,0.25 µg/mL and 0.75 µM
same,MIC,"E. coli CVCCO157; Escherichia coli, read-out: MIC",< 0.0625 µg/mL and < 0.19 µM
same,time to completely kill A. veronii ACCC61732,A. veronii ACCC61732 [3],started to regrow after 2 h
same,PAE,A. veronii ACCC61732 [4]; 1× MIC,0.6 ± 0.01 h
same,PAE,A. veronii ACCC61732 [4]; 2× MIC,0.63 ± 0.1 h
same,PAE,A. veronii ACCC61732 [4]; 4× MIC,0.67 h and 0.67 ± 0.02 h
same,increase of MIC after 30 serial passages,A. veronii ACCC61732 [5],15 fold
same,bacteria in biofilm killed,"[6]; 8× MIC, 37 °C, colony counting",47.46%
same,bacteria in biofilm killed,"[6]; 16× MIC, 37 °C, colony counting",52.32%
same,decrease of bacterial cells in the catheter,[7],28.72%
same,serum level of IL-10,IL-10; 1 μmol/kg,10.1 to 16.41 pg/mL
CC(C)[C@@H]1NC(=O)CNC(=O)[C@H](CC(N)=O)NC(=O)[C@H](CCCNC(=N)N)NC(=O)[C@H](Cc2ccc(O)cc2)NC(=O)[C@H](C(C)C)NC(=O)[C@@H](NC(=O)[C@@H](NC(=O)[C@H](CC(N)=O)NC(=O)[C@H](Cc2c[nH]c3ccccc23)NC(=O)[C@H](C)NC(=O)[C@H](Cc2ccccc2)NC(=O)CN)C(C)C)CSSC[C@@H](C(=O)N[C@@H](Cc2c[nH]cn2)C(=O)N[C@@H](CCCNC(=N)N)C(=O)N2CCC[C@H]2C(=O)N[C@@H](C)C(=O)N[C@@H](CC(N)=O)C(N)=O)NC(=O)[C@H](C(C)C)NC(=O)[C@H](CCCNC(=N)N)NC1=O [N6PNH2] (H-GFAWNVCVYRNGVRVCHRPAN-NH2; disulfide 7-16 (inferred)),MIC,"A. veronii X-1-06909; A. veronii X-1-06909, broth dilution, 37 °C, 16–18 h, three experiments",64 µg/mL
same,MIC,A. veronii X-1-06909; read-out: MIC,26.49 µM
same,MIC,"[1]; CMCC98001, read-out: MIC",>52.98 µM
same,MIC,"E. coli CVCC1515; CVCC1515, read-out: MIC",1.66 µM
same,MIC,"E. coli CVCC1515; E. coli CVCC1515, broth dilution, 37 °C, 16–18 h, three experiments",4 µg/mL
same,MIC,"E. coli CVCC25922; E. coli CVCC25922, broth dilution, 37 °C, 16–18 h, three experiments",8 µg/mL
same,MIC,"E. coli CVCC25922; E. coli CVCC25922, broth dilution, 37 °C, 16–18 h, three experiments, read-out: MIC",3.31 µM
same,MIC,"Escherichia coli CVCC195; Escherichia coli CVCC195, broth dilution, 37 °C, 16–18 h, three experiments",8 µg/mL
same,MIC,Escherichia coli CVCC195; [9],3.31 µM
same,MIC,"S. enteritidis CVCC3377; CVCC3377, read-out: MIC",0.83 µM
same,MIC,"S. enteritidis CVCC3377; S. enteritidis CVCC3377, broth dilution, 37 °C, 16–18 h, three experiments",2 µg/mL
same,MIC,"S. pullorum CVCC1789; CVCC1789, read-out: MIC",6.62 µM
same,MIC,"S. pullorum CVCC1789; S. pullorum CVCC1789, broth dilution, 37 °C, 16–18 h, three experiments",16 µg/mL
same,MIC,"S. pullorum CVCC1809; S. pullorum CVCC1809, broth dilution, 37 °C, 16–18 h, three experiments",8 µg/mL
same,MIC,"S. pullorum CVCC1809; S. pullorum CVCC1809, broth dilution, 37 °C, 16–18 h, three experiments, read-out: MIC",3.31 µM
same,MIC,"S. pullorum CVCC533; CVCC533, read-out: MIC",13.25 µM
same,MIC,"S. pullorum CVCC533; S. pullorum CVCC533, broth dilution, 37 °C, 16–18 h, three experiments",32 µg/mL
same,MIC,[2],>64 µg/mL
same,MIC,E. coli CVCCO157,8 µg/mL
same,MIC,E. coli CVCCO157; read-out: MIC,3.31 µM
same,time to completely kill A. veronii ACCC61732,A. veronii ACCC61732 [3],2 h
same,PAE,A. veronii ACCC61732 [4]; 1× MIC,0.52 ± 0.01 h
same,"PAEs, range over 1×–4× MIC",A. veronii ACCC61732 [4]; 1× to 4× MIC,0.52 to 0.68 h
same,PAE,A. veronii ACCC61732 [4]; 2× MIC,0.62 ± 0.01 h
same,PAE,A. veronii ACCC61732 [4]; 4× MIC,0.68 h and 0.68 ± 0.01 h
same,increase of MIC after 30 serial passages,A. veronii ACCC61732 [5],three-fold
same,effect on CD spectrum of genomic DNA,[8],do not affect the double helix of genomic DNA
same,bacteria in biofilm killed,[6]; 8,57.99%
same,bacteria in biofilm killed,[6]; 16,67.44%
same,decrease of bacterial cells in the catheter,[7],54.09%
same,serum level of IL-10,IL-10; 5 μmol/kg,no discrepancy of IL-10 levels
same,MIC values against Salmonella,Salmonella,0.83 to 13.25 µM
same,MIC after trypsin treatment,trypsin,lost their activity
